Measurements reported in ChEMBL document CHEMBL1121821, “Pyrimidine acyclic nucleosides. 5-Substituted 1-[(2-aminoethoxy)methyl]uracils as candidate antivirals” (J Med Chem, 1981).
Active and inactive are the calls of the source. No cut-off for these calls is given here.

How the values were obtained:
Human adenovirus 5 = test: Compound was tested for antiviral activity against adenovirus type 5; little or no activity; assay type: functional, organism-based
Human alphaherpesvirus 1 = test: Compound was tested for plaque-inhibition against HSV-1 in cell culture at 50 ug per disk; Inactive; assay type: functional, organism-based
Vaccinia virus = test: Compound was tested for antiviral activity against vaccinia virus; little or no activity; assay type: functional, organism-based; details: Orthopoxvirus vaccinia
L cells = test: Cytotoxic activity against Detroit 98 or mouse L cell culture at 10E-4 M concentration; No significant activity; assay type: functional, cell-based; details: L929
[1] = tested on: Thymidine kinase (Human alphaherpesvirus 1); test: Compound was tested for affinity against HSV-1 Thymidine kinase; Low activity
[2] = tested on: Thymidine kinase (Human alphaherpesvirus 1); test: Compound was tested for affinity against HSV-1 thymidine kinase; Low activity

SMILES | Activity (Human adenovirus 5) | Activity (Human alphaherpesvirus 1) | Activity (Vaccinia virus) | Cytotoxicity (L cells) | Activity [1] | Activity [2]
NCCOCn1cc(I)c(=O)[nH]c1=O | Little or no activity | inactive | Little or no activity | inactive | Low activity | –
NCCOCn1cc(Br)c(=O)[nH]c1=O | Little or no activity | inactive | Little or no activity | inactive | – | Low activity
NCCOCn1cc(Cl)c(=O)[nH]c1=O | Little or no activity | inactive | Little or no activity | inactive | Low activity | –
NCCOCn1ccc(=O)[nH]c1=O | Little or no activity | inactive | Little or no activity | inactive | – | Low activity
Cc1cn(COCCN)c(=O)[nH]c1=O | Little or no activity | inactive | Little or no activity | inactive | – | Low activity
